Values of other authors in PMC7395068, “The evolution of strategies to minimise the risk of human drug-induced liver injury (DILI) in drug discovery and development” (Archives of Toxicology, 2020).
Where two headings read alike, the source gives them in different places.

What was measured:
HepG2 cells [1] = conditions: In vitro Assay; ref Persson 2013; cited from earlier work
[2] = cited from earlier work
[3] = test system: HepG2 cells, primary human hepatocytes; conditions: cited from earlier work
human hepatocytes = conditions: In vitro Assay; ref Xu 2008; cited from earlier work
[4] = cited from earlier work; remark: listed apart in the source
[5] = cited from earlier work; remark: listed apart in the source
[6] = test system: primary human hepatocytes, NIH3T3 fibroblasts, BSEP, CYP3A4; conditions: In vitro Assay; ref Schadt 2015; cited from earlier work
[7] = test system: isolated mouse liver mitochondria; conditions: In vitro Assay; ref Porceddu 2012; cited from earlier work
HepG2 cells [8] = conditions: In vitro Assay; ref O'Brien 2006; cited from earlier work
rBsep = conditions: In vitro Assay; ref Dawson 2012; cited from earlier work
[9] = test system: THLE-Null and THLE-3A4 cells; conditions: In vitro Assay; ref Gustafsson 2014; cited from earlier work
[10] = test system: THLE or HepG2 cells, isolated mitochondria, BSEP; conditions: cited from earlier work
[11] = In vitro Assay, ref Garside 2014

Compound	Structural based (HCI) (HepG2 cells [1])	In vivo DILI ([2]; ref Aleo 2019)	In vivo DILI ([2]; ref Garside 2014)	In vivo DILI ([2]; ref Xu 2008)	Cluster 1-6 +VE Assay [3, 11]	Structural based (HCI) (human hepatocytes)	DILI Score (FDA) (1-8) ([4]; ref Chen 2011)	DILI +VE (5-8), DILI -VE (-4) ([5]; ref Chen 2016)	DILI severity category ([5]; ref Chen 2016)	in vitro data EC2<=1x Cmax [7]	in vitro data EC20<=2uM [7]	Structural based (HCI) (HepG2 cells [8])	DILI Score (FDA) (1-8) ([4]; in vivo)	Inhibition of rBsep cutoff<1& cmax u>.2 (rBsep)	Inhibition of rBsep cutoff<3 (rBsep)	THLE-Null [9]	DILI +VE (5-8), DILI -VE (-4) ([5]; in vivo)	DILI severity category ([5]; in vivo)	Partition Hybrid HRM Score ([10]; In vitro Assay, ref Aleo 2019)	Ro2 Hybrid HRM Score ([10]; In vitro Assay, ref Aleo 2019)	further results
CC(O)(CS(=O)(=O)c1ccc(F)cc1)C(=O)Nc1ccc(C#N)c(C(F)(F)F)c1 (stereo not drawn) [bicalutamide]	+VE	+VE	+VE	+VE	+VE	-VE	8	+VE	vMost-DILI-Concern												Cluser analysis (HepG2 cells [1]): -VE; In vivo DILI ([2]; ref Persson 2013): +VE
CC(C)Cc1ccc(C(C)C(=O)O)cc1 (stereo not drawn) [ibuprofen]	+VE									+VE	+VE	+VE	3	-VE	+VE	-VE	+VE	vLess-DILI-Concern			Cellular toxicity (3T3 cells) [6]: -VE; Combined Assay [6]: -VE; GSH adduct HML [6]: -VE; Hepatocyte cellular toxicity [6]: -VE; MitoTox 3T3 [6]: -VE; TDI CYP3A4 [6]: -VE; hBSEP inhibition [6]: -VE
CC1=C(/C=C/C(C)=C/C=C/C(C)=C\C(=O)O)C(C)(C)CCC1 [isotretinoin]			+VE	+VE	+VE	+VE	2	+VE	vMost-DILI-Concern			-VE									In vivo DILI ([2]; ref O'Brien 2006): +VE
CNC(=C[N+](=O)[O-])NCCSCc1ccc(CN(C)C)o1 [ranitidine]		+VE	+VE	-VE			5	+VE	vLess-DILI-Concern	+VE	-VE			-VE	-VE	-VE			-VE	-VE	In vivo DILI ([2]; […]): +VE; In vivo DILI ([2]; ref Dawson 2012): +VE; In vivo DILI ([2]; ref Gustafsson 2014): +VE; In vivo DILI ([2]; ref Porceddu 2012): +VE
CO[C@H]1/C=C/O[C@@]2(C)Oc3c(C)c(O)c4c(O)c(c(/C=N/N5CCN(C)CC5)c(O)c4c3C2=O)NC(=O)/C(C)=C\C=C\[C@H](C)[C@H](O)[C@@H](C)[C@@H](O)[C@@H](C)[C@H](OC(C)=O)[C@@H]1C [rifampin]		+VE	+VE		-VE		8	+VE	vMost-DILI-Concern										+VE	+VE	In vivo DILI ([2]; […]): +VE
COc1ccc(C(CN(C)C)C2(O)CCCCC2)cc1 (stereo not drawn) [venlafaxine]													7				+VE	vLess-DILI-Concern			Partition Hybrid HRM Score [10]: +VE; Ro2 Hybrid HRM Score [10]: +VE; Cluster 1-6 +VE Assay [3]: -VE
